Laboratory results taken from article PMC12037410, “Pharmacological targeting of BMAL1 modulates circadian and immune pathways” (Nature Chemical Biology, 2025).

Molecular target: BMAL1 (Homo sapiens, UniProt O00327)
Design: PASB domain (residues 338–449); Protein thermal shift (PTS) fragment screen on recombinant human BMAL1(PASB), shift of melting temperature
Details: dTmB; binder

Sequence of BMAL1 (O00327 338-449): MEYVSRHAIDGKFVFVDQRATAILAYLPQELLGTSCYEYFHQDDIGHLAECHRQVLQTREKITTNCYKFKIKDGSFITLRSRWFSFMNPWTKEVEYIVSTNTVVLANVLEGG

Row | SMILES | Bmal1(PASB) dTmB
1 | Cc1cccc(Nc2ccccc2C(=O)O)c1 [Prestw-Frag-1320, Compound 17] | -0.74 °C
2 | Nc1cccc(C(F)(F)F)c1 [Prestw-Frag-1322, Compound 231] | 0.29 °C
3 | Fc1ccc(C(c2ccc(F)cc2)N2CCNCC2)cc1 [Prestw-Frag-1323, Compound 452] | -2.55 °C
4 | CN1CCN(C(c2ccccc2)c2ccccc2)CC1 [Prestw-Frag-1325, Compound 405] | -0.51 °C
5 | COc1ccccc1OCCCO [Prestw-Frag-1335, Compound 370] | 4.16 °C
6 | OCC(O)COc1ccccc1 (centres unmarked) [Prestw-Frag-1337, Compound 306] | 0.63 °C
7 | COc1ccccc1OCCO [Prestw-Frag-1338, Compound 363] | 0.76 °C
8 | CCC(C(=O)OCCN(CC)CC)c1ccccc1 (centres unmarked) [Prestw-Frag-1343, Compound 396] | -1.01 °C
9 | OC(c1ccc(Cl)cc1)c1ccccn1 (centres unmarked) [Prestw-Frag-1346, Compound 414] | -1.29 °C
10 | CNC(=O)c1cnc(C)cn1 [Prestw-Frag-1350, Compound 286] | 0.06 °C
11 | CNCCc1c[nH]c2ccccc12 [Prestw-Frag-1356, Compound 318] | -0.40 °C
12 | O=C1COc2ccccc21 [Prestw-Frag-1361, Compound 165] | -0.13 °C
13 | COc1ccc2c(c1)OCC2=O [Prestw-Frag-1362, Compound 212] | -0.12 °C
14 | OC1(c2ccc(Cl)cc2)CCNCC1 [Prestw-Frag-1365, Compound 373] | -1.00 °C
15 | CCCC(=O)c1ccc(F)cc1 [Prestw-Frag-1368, Compound 311] | -0.19 °C
16 | COc1ccc2cc[nH]c2c1 [Prestw-Frag-1372, Compound 392] | 0.28 °C
17 | Oc1ccc2cc[nH]c2c1 [Prestw-Frag-1374, Compound 33] | 0.97 °C
18 | O=C(OC1CCCCC1)c1ccccc1O [Prestw-Frag-1382, Compound 265] | 0.09 °C
19 | NCC(O)COc1cccc2ccccc12 (centres unmarked) [Prestw-Frag-1389, Compound 450] | 1.58 °C

Row | SMILES | Bmal1(PASB) dTmB
20 | NS(=O)(=O)c1ccccc1C(F)(F)F [Prestw-Frag-1394, Compound 374] | -0.07 °C
21 | c1cc2c(cc1CN1CCNCC1)OCO2 [Prestw-Frag-1397, Compound 232] | -0.60 °C
22 | c1cnc(N2CCNCC2)nc1 [Prestw-Frag-1398, Compound 399] | -0.21 °C
23 | COC(=O)C(CO)c1ccccc1 (centres unmarked) [Prestw-Frag-1406, Compound 266] | -0.21 °C
24 | Cc1cn[nH]c1C [Prestw-Frag-1408, Compound 109] | -1.01 °C
25 | NNC(=O)c1ccncc1 [Prestw-Frag-1419, Compound 226] | -0.26 °C
26 | NNC(=O)c1ccccc1 [Prestw-Frag-1420, Compound 187] | -0.31 °C
27 | c1cnc2[nH]ncc2c1 [Prestw-Frag-1428, Compound 174] | -0.31 °C
28 | NC(=O)c1ccccc1O [Prestw-Frag-1439, Compound 86] | 0.06 °C
29 | c1ccc(-c2ccccc2-c2nn[nH]n2)cc1 [Prestw-Frag-1441, Compound 357] | -0.44 °C
30 | c1ccc(CC2NCCc3ccccc32)cc1 (centres unmarked) [Prestw-Frag-1444, Compound 267] | -1.30 °C
31 | COc1ccc(CCN(C)C)cc1OC [Prestw-Frag-1445, Compound 247] | -0.12 °C
32 | CNCCc1ccc(OC)c(OC)c1 [Prestw-Frag-1446, Compound 257] | -0.19 °C
33 | CN(C)C(=O)C(c1ccccc1)c1ccccc1 [Prestw-Frag-1453, Compound 166] | -0.94 °C
34 | CCN(CC)Cc1cc(N)ccc1O [Prestw-Frag-1462, Compound 5] | -4.46 °C
35 | Nc1nc2ccc(C(=O)c3ccccc3)cc2[nH]1 [Prestw-Frag-1471, Compound 466] | -1.29 °C
36 | c1ccc(CNc2ccccn2)cc1 [Prestw-Frag-1475, Compound 204] | -1.06 °C
37 | CN(C)CCNCc1ccccc1 [Prestw-Frag-1476, Compound 397] | -0.27 °C
38 | CC(=O)NCCc1c[nH]c2ccccc12 [Prestw-Frag-1478, Compound 417] | -0.27 °C

Row | SMILES | Bmal1(PASB) dTmB
39 | COc1ccc2[nH]cc(CCN)c2c1 [Prestw-Frag-1480, Compound 3] | 3.24 °C
40 | Nc1c(Cl)ccc2nsnc12 [Prestw-Frag-1492, Compound 2] | -1.34 °C
41 | Cc1cnc(C(=O)O)cn1 [Prestw-Frag-1494, Compound 98] | 0.14 °C
42 | O=C(O)c1cnccn1 [Prestw-Frag-1495, Compound 269] | 0.04 °C
43 | O=C(O)CC[C@H](NC(=O)c1ccccc1)C(=O)O [Prestw-Frag-1499, Compound 195] | 0.09 °C
44 | COc1cc(C)cc(C)c1C [Prestw-Frag-1506, Compound 359] | -0.12 °C
45 | Cc1nccn1CCO [Prestw-Frag-1517, Compound 258] | -0.20 °C
46 | CNCC(c1ccc(OC)cc1)C1(O)CCCCC1 (centres unmarked) [Prestw-Frag-1523, Compound 157] | -0.81 °C
47 | CN(C)C(=O)Oc1ccccc1 [Prestw-Frag-1540, Compound 384] | -0.26 °C
48 | Nc1ccc([N+](=O)[O-])cc1Cl [Prestw-Frag-1543, Compound 463] | 0.66 °C
49 | O=C(Nc1ccccc1Cl)c1ccccc1O [Prestw-Frag-1545, Compound 383] | 1.33 °C
50 | COC(=O)C1=C(C)NC(C)=C(C(=O)OC)C1 [Prestw-Frag-1547, Compound 26] | -1.89 °C
51 | COc1ccc(N2CCN(c3ccc(N)cc3)CC2)cc1 [Prestw-Frag-1557, Compound 35] | 0.19 °C
52 | O=c1[nH]nc(Cc2ccc(Cl)cc2)c2ccccc12 [Prestw-Frag-1559, Compound 61] | -0.44 °C
53 | O=c1[nH]ncc2ccccc12 [Prestw-Frag-1560, Compound 345] | -0.38 °C
54 | O=c1[nH]nc(Cc2ccccc2)c2ccccc12 [Prestw-Frag-1561, Compound 106] | -0.90 °C
55 | CC(C)CC(N)C1(c2ccc(Cl)cc2)CCC1 (centres unmarked) [Prestw-Frag-1566, Compound 459] | -2.54 °C
56 | Cc1cc(C(C)(C)C)cc(C)c1CC1=NCCN1 [Prestw-Frag-1575, Compound 425] | -1.26 °C
